Laboratory results from ChEMBL document CHEMBL1137441, “Carbonic anhydrase inhibitors: the inhibition profiles of the human mitochondrial isoforms VA and VB with anions are very different” (Bioorg Med Chem, 2007).

Legend:
[1] = target: Carbonic anhydrase 5A, mitochondrial (Homo sapiens) (UniProt P35218); assay: Inhibition of human mitochondrial CA5A by CO2 hydration assay
[2] = target: Carbonic anhydrase 5B, mitochondrial (Homo sapiens) (UniProt Q9Y2D0)
Chain of Carbonic anhydrase 5B, mitochondrial (Homo sapiens) (Q9Y2D0 whole entry): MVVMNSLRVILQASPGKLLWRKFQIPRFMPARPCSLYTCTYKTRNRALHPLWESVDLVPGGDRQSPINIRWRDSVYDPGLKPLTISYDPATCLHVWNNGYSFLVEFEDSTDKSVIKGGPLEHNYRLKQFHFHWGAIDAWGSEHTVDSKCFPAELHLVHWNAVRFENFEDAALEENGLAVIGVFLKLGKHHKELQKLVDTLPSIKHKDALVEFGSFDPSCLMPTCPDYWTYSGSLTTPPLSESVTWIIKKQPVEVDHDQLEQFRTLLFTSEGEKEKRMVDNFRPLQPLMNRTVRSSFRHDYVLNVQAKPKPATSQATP
Description: Inhibition of human mitochondrial CA5B by CO2 hydration assay

Chain of Carbonic anhydrase 5A, mitochondrial (Homo sapiens) (P35218 whole entry): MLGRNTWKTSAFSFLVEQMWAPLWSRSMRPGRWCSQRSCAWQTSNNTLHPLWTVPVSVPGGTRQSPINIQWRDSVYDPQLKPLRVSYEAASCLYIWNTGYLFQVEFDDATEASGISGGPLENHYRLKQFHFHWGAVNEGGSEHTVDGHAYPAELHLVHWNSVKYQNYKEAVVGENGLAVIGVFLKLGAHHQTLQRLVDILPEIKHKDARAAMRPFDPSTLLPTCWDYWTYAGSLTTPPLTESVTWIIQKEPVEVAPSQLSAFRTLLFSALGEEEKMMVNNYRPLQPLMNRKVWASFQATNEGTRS

SMILES | Kinact [1] [mM] | Kinact [2] [mM]
OB(O)c1ccccc1 | 1.04 | –
O=[As](O)(O)c1ccccc1 | 1.02 | 0.082
